Data published in patent US9592223B2, “Small molecule inhibitors of MALT1” (Cornell University, priority 2012, dated 2017).

Key:
Caspase-8 = Caspase-8 (Homo sapiens, UniProt Q14790); assay: Caspase selectivity; type: biochemical
[1] = system: ABC-DLBCL cell lines HBL-1 and TMD8 vs GCB-DLBCL cell line OCI-Ly1; assay: Cell proliferation of selected hits and analogs, ATP-based metabolic luminescent assay; parameters: species or system human
Text: MALT1 activity plays an important role in selectively maintaining proliferation of ABC-DLBCL cell lines (Ngo et al., 2006). Accordingly ABC and GCB-DLBCL cell lines present differential sensitivity to MALT1 cleavage inhibition by the peptide Z-VRPR-FMK (Ferch et al., 2009; Hailfinger et al., 2009; Rebeaud et al., 2008). To determine whether candidate small molecules display a similar profile two ABC-DLBCL cell lines, HBL-1 and TMD8, and one GCB-DLBCL cell line, OCI-Ly1, were exposed to increasing concentrations of the nineteen selected molecules. Cell proliferation was measured 48 hr after exposure to a single dose of compound using an ATP-based metabolic luminescent assay (summarized in FIG. 1C).
A total of 704 analog compounds from available libraries with similarity score ≧70% (Tanimoto similarity functions) were screened by LZ-MALT1 fluorescence assay.
Cell proliferation was determined by ATP quantification using a luminescent method (CellTiter-Glo, Promega, Madison, Wis.) and Trypan blue dye-exclusion (Sigma, St. Louis, Mo.). […]
DLBCL cell lines were grown in exponential growth conditions during the 48 hr of treatment. Cell proliferation was determined by ATP quantification using a luminescent method (CellTiter-Glo, Promega, Madison, Wis.) and Trypan blue dye-exclusion (Sigma, St. Louis, Mo.). […]

[2] = target: T1, MALT1 active site mutant C464A (Homo sapiens, UniProt Q9UDY8, C464A); assay: LC-MS covalent modification, active site mutant; type: binding
T1 construct: MALT1 paracaspase domain (329-728) presented a major peak at 55,988.4 Da
T1 sequence (Q9UDY8 329-728 C464A): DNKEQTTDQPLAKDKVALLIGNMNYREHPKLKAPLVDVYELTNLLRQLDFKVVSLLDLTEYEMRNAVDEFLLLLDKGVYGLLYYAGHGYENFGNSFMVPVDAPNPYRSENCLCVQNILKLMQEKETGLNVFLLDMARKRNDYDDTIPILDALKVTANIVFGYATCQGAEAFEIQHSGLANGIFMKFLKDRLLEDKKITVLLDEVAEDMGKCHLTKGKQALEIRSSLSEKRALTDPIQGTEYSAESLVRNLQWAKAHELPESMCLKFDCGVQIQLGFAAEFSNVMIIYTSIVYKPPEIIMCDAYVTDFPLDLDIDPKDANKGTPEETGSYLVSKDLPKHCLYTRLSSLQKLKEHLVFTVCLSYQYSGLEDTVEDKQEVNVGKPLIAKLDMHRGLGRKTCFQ
Description: The final results were ranked on the predicted binding free energy and the cluster size for each docking conformation.
HPLC/ESI-MS experiments were carried out on 5 μl sample at 1 mg/ml protein concentration. Separation of proteins was performed on a HP 1100 system (Hewlett Packard, Palo Alto, Calif., USA) employing a 1 mm×150 mm LC Packings column packed with POROS R1/H (Perseptive Biosystems, Foster City, Calif., USA). The column was kept at 80° C. Samples were injected onto the column using a CTC PAL autosampler (CTC, Zwingen Switzerland) fitted with a Valco model C6UW HPLC valve (Valco, Houston, Tex., USA) and a 10 μl injection loop. HPLC was controlled by MassLynx software (Micromass, Manchester, UK). UV detection was performed at 214 nm. Eluent A was water containing 0.05% TFA. Eluent B was a 1:9 mixture of water:acetonitrile containing 0.045% TFA. A gradient from 20% B to 90% B was run in 20 minutes. The flow rate was typically 60 μl/min. The total flow from the LC system was introduced into the UV detection cell prior to introduction in the ESI source. The HPLC system was controlled and the signal from the UV detector was processed using MassLynx software. […] Data were recorded and processed using MassLynx software. […]

c-REL = c-REL flow cytometry of whole cells or isolated nuclei, HBL-1 cells; type: cell-based, human; details: 200 nM MI-2 or 50 μM Z-VRPR-FMK, 24 hr
Description: MALT1 mediates c-REL translocation to the nucleus following BCR stimulation (Ferch et al., 2007). […] This selectivity towards c-REL had also been previously shown in MALT1 knockout mice and after MALT1 cleavage inhibition by the MALT1 blocking peptide Z-VRPR-FMK (Ferch et al., 2009; Ferch et al., 2007; Hailfinger et al., 2011).
[…] was studied by flow cytometry. Cells were treated as indicated and total cells or isolated nuclei were prepared and stained for c-REL. Total cells were fixed and permeabilized using the Intrastain kit from Dako (Glostrup, Denmark). For nuclei extraction, cells were resuspended in cold nuclei extraction buffer (320 mM sucrose, 5 mM MgCl2, 10 mM HEPES, 1% Triton X-100 at pH 7.4), incubated for 10 min on ice and washed twice with nuclei wash buffer (320 mM sucrose, 5 mM MgCl2, 10 mM HEPES at pH 7.4, no Triton X-100). Nuclei yield and integrity were confirmed by microscopic examination with trypan blue staining. For labeling, nuclei wash buffer was supplemented with 1% BSA, 0.1% sodium azide and 1:100 c-REL antibody (Cell Signaling). Cells were washed then incubated with Alexa Fluor-488 conjugated secondary antibodies from Invitrogen. Cells were washed again and stained with DAPI followed by flow cytometry.

c-REL nuclear protein = assay: c-REL immunofluorescence in paraffinized xenograft tumor sections; type: in vivo, mice; details: IP 25 mg/kg/day
Text: Animals were sacrificed 24 hr after the fourteenth injection.
Paraffin-embedded tumor xenografts were sectioned, dewaxed and submitted to antigen retrieval. For IF-P, Alexa Fluor-488 conjugated secondary antibodies from Invitrogen where used and cell nuclei where counterstained with DAPI. Fluorescent images were taken using an Axiovert 200M fluorescent microscope (Carl Zeiss Inc., Thornwood, N.Y.). Oberkochen, Germany). For IHC, biotin-conjugated secondary antibodies where used. Then avidin/biotin peroxidase was applied to the slides (Vector Laboratories). Color was developed with diaminobenzoate chromogen peroxidase substrate (Vector) and counterstained with hematoxilin-eosyn. Pictures were obtained using an AxioCam (Carl Zeiss Inc.) camera attached to an AxioSkop II light microscope (Carl Zeiss Inc.). Samples were reviewed by a pathologist.

Sequence of Caspase-8 (Q14790 217-374 limits assumed): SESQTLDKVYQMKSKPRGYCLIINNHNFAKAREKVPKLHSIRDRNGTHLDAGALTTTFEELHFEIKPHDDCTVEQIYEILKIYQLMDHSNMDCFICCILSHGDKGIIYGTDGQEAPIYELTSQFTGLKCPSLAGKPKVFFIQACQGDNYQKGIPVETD
Sequence of Caspase-8 (Q14790 385-479 limits assumed): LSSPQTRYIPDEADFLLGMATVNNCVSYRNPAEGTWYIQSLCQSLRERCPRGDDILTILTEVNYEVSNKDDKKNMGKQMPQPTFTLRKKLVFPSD

COCCOc1nc(-c2ccc(Cl)c(Cl)c2)n(-c2ccc(NC(=O)CCl)cc2)n1 [MI-2]
activity against Caspase-8 (Caspase-8): little activity
GI25 concentrations ([1]; 48 hr): high nanomolar range
suppression of cell proliferation, ABC-DLBCL vs GCB-DLBCL cell lines ([1]; 48 hr after a single dose, increasing concentrations): significant selective dose-dependent suppression of ABC-DLBCL cells
covalent binding to MALT1 C464A [2]: markedly reduced covalent binding
nuclear c-REL (c-REL; isolated nuclei): reduced nuclear c-REL
whole cell c-REL (c-REL; whole cells): without affecting whole cell levels
c-REL nuclear protein in tumors (c-REL nuclear protein): reduced c-REL nuclear protein
